Where two headings read alike, the source gives them in different places.
What was measured:
[1] = Measurement of pKa of compound β in ground state (acid titration, 0.1 N HCl, methanol/water); conditions: for pKa: methanol/water mixture
[2] = Measurement of ε365 and ε365/ε313 of compound β (molar absorption coefficients in acetonitrile); assay type: physicochemical; set-up: key to ε365 of Compound β: molar absorption coefficient at 365 nm in (cm·mol/L)^−1; conditions: for ε365/ε313: compound β
From the text: (Measurement and Evaluation of ε365 and ε365/ε313)
A molar absorption coefficient ((cm·mol/L)^−1, “ε365”) of the compound β at 365 nm and a molar absorption coefficient ((cm·mol/L)^−1, “ε313”) of the compound β at 313 nm were obtained, and a value (ε365/ε313) obtained by divided ε365 by ε313 was obtained.
The ε365 and ε313 of the compound β are molar absorption coefficients measured by dissolving the compound β in acetonitrile. In a case where the compound β was insoluble in acetonitrile, a solvent for dissolving the compound β may be appropriately changed.

[3] = physchem
[4] = pKa of Compound β in ground state
[5] = pKa of Compound β in ground state, compound β alone
[6] = pKa of Compound β in ground state, compound β, ground state
[7] = pKa of Compound β in ground state, ground state
[8] = molar absorption coefficient at 365 nm
[9] = molar absorption coefficient at 365 nm in acetonitrile
[10] = molar absorption coefficient at 365 nm, compound β alone
[11] = molar absorption coefficient at 365 nm, in acetonitrile
[12] = pKa in ground state, compound β, pKa of the conjugate acid for nitrogen-containing aromatic compounds
[13] = compound β, pKa of the conjugate acid for nitrogen-containing aromatic compounds

Row | Structure (SMILES) | pKa [1, 4] | pKa [1, 5] | pKa [1, 6] | pKa [1, 7] | ε365 of Compound β [2] | ε365 of Compound β ([2]; compound β alone) | ε365 of Compound β [2, 8] | ε365 of Compound β [2, 9] | ε365 of Compound β [2, 10] | ε365 of Compound β [2, 11] | pKa [1, 12] | other results
1 | Nc1ccncc1 [Example 4-Aminopyridine, 4-Aminopyridine] | 9.2 | 9.2 | 9.2 | 9.2 | <100 | <100 | <100 | <100 (cm·mol/L)^−1 | <100 | <100 (cm·mol/L)^−1 | – | –
2 | c1ccc(-c2c3ccccc3nc3ccccc23)cc1 [Example 9-Phenylacridine, 9-Phenylacridine] | 4.04 | 4.04 | 4.04 | 4.04 | – | – | – | – | >1000 | – | – | –
3 | CC(=O)c1ccncc1 [4-Acetylpyridine] | – | – | – | – | – | – | – | – | – | – | 3.1 | ε365/ε313 ([2]; in acetonitrile): <1
4 | Cc1cc(C)c2c(C)cc(C)nc2c1 [2,4,5,7-Tetramethylquinoline] | 6.23 | 6.23 | 6.23 | 6.23 | <10 | <10 | <10 | <10 (cm·mol/L)^−1 | <10 | <10 (cm·mol/L)^−1 | – | –
5 | Nc1ccncc1 [Example B13, 4-aminopyridine] | – | – | – | – | – | – | – | – | – | – | – | pKa [3]: 9.2
6 | c1ccc2nc3ccccc3cc2c1 [Example B3, acridine] | 4.67 | 4.67 | 4.67 | 4.67 | 4900 | 4900 | 4900 | 4900 (cm·mol/L)^−1 | 4900 | 4900 (cm·mol/L)^−1 | 4.7 | pKa in ground state [1, 13]: 4.67; ε365/ε313 ([2]; in acetonitrile): >3
7 | c1ccncc1 [Example B11, pyridine] | – | – | – | – | <10 | <10 | <10 | <10 (cm·mol/L)^−1 | <10 | <10 (cm·mol/L)^−1 | – | –
8 | Clc1ccccn1 [Example 2-Chloropyridine, 2-Chloropyridine] | – | – | – | – | <10 | <10 | <10 | <10 (cm·mol/L)^−1 | <10 | <10 (cm·mol/L)^−1 | – | pKa of Compound β in ground state [1]: 0.70; pKa of Compound β in ground state ([1]; compound β alone): 0.70; pKa of Compound β in ground state ([1]; compound β, ground state): 0.70; pKa of Compound β in ground state ([1]; ground state): 0.70
9 | O=C(c1ccccc1)c1ccncc1 [4-Benzoylpyridine] | – | – | – | – | – | – | – | – | – | – | 2.9 | ε365/ε313 ([2]; in acetonitrile): <1
10 | Cc1cc(C)c2c(C)cc(C)nc2c1 [Example B7, 2,4,5,7-tetramethylquinoline] | – | – | – | – | – | – | – | – | – | – | 6.23 | –
11 | Clc1ccccn1 [Example B14, 2-chloropyridine] | – | – | – | – | – | – | – | – | – | – | – | pKa [1]: 0.7
12 | c1cnc2c(c1)CCCC2 [5,6,7,8-Tetrahydroquinoline] | – | – | – | – | – | – | – | – | – | – | 5.9 | ε365/ε313 ([2]; in acetonitrile): <1

Second part, led by results:

Row | pKa [1, 4] | pKa [1, 5] | pKa [1, 6] | pKa [1, 7] | ε365 of Compound β [2] | ε365 of Compound β ([2]; compound β alone) | ε365 of Compound β [2, 8] | ε365 of Compound β [2, 9] | ε365 of Compound β [2, 10] | ε365 of Compound β [2, 11] | pKa [1, 12] | Structure (SMILES) | other results
13 | – | – | – | – | – | – | – | – | – | – | 3.8 | c1ccc2c(c1)cnc1ccccc12 [Phenanthridine] | ε365/ε313 ([2]; in acetonitrile): <1
14 | 5.4 | 5.4 | 5.4 | 5.4 | 6300 | 6300 | 6300 | 6300 (cm·mol/L)^−1 | 6300 | 6300 (cm·mol/L)^−1 | – | Cc1c2ccccc2nc2ccccc12 [Example 9-Methylacridine, 9-Methylacridine] | –
15 | 4.15 | 4.15 | 4.15 | 4.15 | <10 | <10 | <10 | <10 (cm·mol/L)^−1 | <10 | <10 (cm·mol/L)^−1 | 4.2 | c1ccc2ncccc2c1 [Example B2, quinoline] | pKa in ground state [1, 13]: 4.15; ε365/ε313 ([2]; in acetonitrile): <1
16 | – | – | – | – | – | – | – | – | – | – | 5.4 | Cc1c2ccccc2nc2ccccc12 [Example B9, 9-methylacridine] | –
17 | 6.51 | 6.51 | 6.51 | 6.51 | <10 | <10 | <10 | <10 (cm·mol/L)^−1 | <10 | <10 (cm·mol/L)^−1 | – | COc1cc(C)nc2ccccc12 [Example 2-Methyl-4-methoxyquinoline, 2-Methyl-4-methoxyquinoline] | –
18 | – | – | – | – | – | – | – | – | – | – | 4.04 | c1ccc(-c2c3ccccc3nc3ccccc23)cc1 [Example B10, 9-phenylacridine] | –
19 | 5.27 | 5.27 | 5.27 | 5.27 | <10 | <10 | <10 | <10 (cm·mol/L)^−1 | <10 | <10 (cm·mol/L)^−1 | – | CCCCc1nccc2ccccc12 [Example 1-n-Butylisoquinoline, 1-n-Butylisoquinoline] | –
20 | – | – | – | – | – | – | – | – | – | – | 5.9 | CCCCc1ncc(C)c2ccccc12 [Example B5, 1-n-butyl-4-methylisoquinoline] | –
21 | – | – | – | – | – | – | – | – | – | – | 6.51 | COc1cc(C)nc2ccccc12 [Example B8, 2-methyl-4-methoxyquinoline] | –
22 | – | – | – | – | – | – | – | – | – | – | 5.27 | CCCCc1nccc2ccccc12 [Example B4, 1-n-butylisoquinoline] | –
23 | – | – | – | – | <10 | <10 | <10 | <10 (cm·mol/L)^−1 | <10 | <10 (cm·mol/L)^−1 | – | Cc1nccc2ccccc12 [Example B6, 1-Me-isoquinoline] | pKa of Compound β in ground state [1]: 5.31; pKa of Compound β in ground state ([1]; compound β alone): 5.31; pKa of Compound β in ground state ([1]; compound β, ground state): 5.31; pKa in ground state [1, 13]: 5.31; pKa of Compound β in ground state ([1]; ground state): 5.31
24 | 5.9 | 5.9 | 5.9 | 5.9 | <10 | <10 | <10 | <10 (cm·mol/L)^−1 | <10 | <10 (cm·mol/L)^−1 | – | CCCCc1ncc(C)c2ccccc12 [Example 1-n-Butyl-4-methylisoquinoline, 1-n-Butyl-4-methylisoquinoline] | –
25 | 5.67 | 5.67 | 5.67 | 5.67 | <10 | – | <10 | <10 (cm·mol/L)^−1 | <10 | <10 (cm·mol/L)^−1 | 5.67 | Cc1cc(C)c2ccccc2n1 [Example B12, 2,4-dimethylquinoline] | –
26 | 4.69 | 4.69 | 4.69 | 4.69 | <10 | <10 | <10 | <10 (cm·mol/L)^−1 | <10 | <10 (cm·mol/L)^−1 | 4.7 | c1ccc2cnccc2c1 [Example B1, isoquinoline] | pKa in ground state [1, 13]: 4.69; ε365/ε313 ([2]; in acetonitrile): <1
